How the values were obtained:
[1] = tested on: shMre11 Hep3B cell line; assay: Clonogenic assay, Mre11 knockdown (shMre11) Hep3B cell line; type: cell-based, human
Source text: For generating an Mre11-knockdown cell line, GPIZ lentiviral shRNA (Open biosystems, Lafayette, Colo.) was used according to the supplied protocol. In order to generate lentivirus, Hep3B cells were transfected in separate experiments with three random clones from a,shRNA library against Mre11 or a control shRNA together with a packaging plasmid (Trans-lentiviral packaging system, Open biosystems, Lafayette, Colo.) using lipofectamine 2000 (Invitrogen, Life technologies, Grand Island, N.Y.). Approximately 72 hours later, cells were observed under a microscope to express GFP, which is a marker of expression of shRNA against Mre11. Relative mre11 knockdown was confirmed by western blot analysis.
Clonogenic assay estimates single-cell reproductive viability by measuring the ability of a single cell to form a colony of 50 cells or more. Clonogenic assay in this study was performed as described previously (Franken et al., 2006). Briefly, cancer cells from an exponentially growing, sub-confluent culture were trypsinized and harvested. Approximately 200 cells were counted and plated in each well of a 6-well plate. Approximately 12 hours later, the cells were adherent and treatment conditions were introduced as described herein. […] The number of colonies in each well was counted using a colony counting grid. […]

[2] = tested on: orthotopic pancreatic tumors (KPC pancreatic adenocarcinoma cells); assay: Gemcitabine uptake into orthotopic KPC pancreatic tumors with and without RF (LC-MS); type: in vivo, mouse; conditions: 70 mg/Kg systemic injection, sacrificed 5 hours later, RF until 41° C.
Source text: FIGS. 11A-11E illustrate an example of an embodiment of the use RF energy to enhance the uptake of chemotherapy drugs into tumors compared to using chemotherapy drugs alone. (11A) Female Nude mice (4-6 weeks old) were given direct injections of KPC pancreatic adenocarcinoma cells (1×10^6) into the pancreas. After 1-2 weeks (enough time for a orthotopic pancreatic tumor to form) the mice were subjected to RF exposure under a ramped power treatment protocol as shown in the table. (11B) Graph of a typical RF power and resulting temperature versus time plot for a single mouse being exposed to RF energy. The surface temperature of the mouse in close proximity to the pancreas was recorded using an IR camera. The RF exposure was turned off once the temperature reached 41° C. […] Quantification of Gemcitabine was analyzed using Liquid Chromatography Mass Spectroscopy (LC-MS). (11E) Quantification of the levels of Gemcitabine in the orthotopic pancreatic tumors of mice with and without RF exposure. […]
FIGS. 11A-11E illustrate an example of an embodiment of the use RF energy to enhance the uptake of chemotherapy drugs into tumors compared to using chemotherapy drugs alone. […] The surface temperature of the mouse in close proximity to the pancreas was recorded using an IR camera. […] Quantification of Gemcitabine was analyzed using Liquid Chromatography Mass Spectroscopy (LC-MS). […]

Gemcitabine present in tumors, RF-treated mice versus control group [2]: approximately 4 ×
Structure (SMILES): Nc1ccn([C@@H]2O[C@H](CO)[C@@H](O)C2(F)F)c(=O)n1 [gemcitabine, 2′,2′-difluoro 2′-deoxycytidine]
sensitivity to gemcitabine, shMre11 versus shControl cell line ([1]; clonogenic survival): more sensitive to gemcitabine
thermal enhancement of gemcitabine toxicity ([1]; shControl versus shMre11 cells): noted for shControl but not shMre11 cells
